Laboratory results reported in US20250145606A1 (Arcus Biosciences, Inc., priority 2023, published 2025).

Legend:
Conditions in all cases: biochemical, HTRF KinEASE-TK
c-Kit = c-Kit (Homo sapiens (Human), UniProt P10721); assay: Inhibition of c-Kit kinase activity (HTRF KinEASE-TK); type: biochemical
Experimental: (§1) Inhibition of c-Kit, PDGFRα, PDGFRβ, CSFIR and FLT3 Kinase Activity
(§2) Compounds were evaluated to determine the potency with which they inhibit the kinase activity of the following panel of tyrosine kinases: c-Kit (SignalChem, Product #: K06-11BG), PDGFRα (SignalChem, Product #: P12-18G), PDGFRβ (SignalChem, Product #: P13-11G), CSFIR (SignalChem, Product #: C74-11G) and FLT3 (Invitrogen, Product #: PR4666C). Activity was determined as a function of phosphorylated biotinylated TK peptide generated by the transfer of phosphate from ATP as measured by the use of the HTRF KinEASE-TK assay kit (Cisbio, Product #: 62TKOPEJ). Levels of phosphorylated biotinylated TK peptide (Part 61TKOBLC of KinEASE assay kit) are quantified by its capture by phosphor-TK-Antibody-Cryptate (Part of KinEASE assay kit) and XL665-labeled Streptavidin (Part 610SAXLG of KinEASE assay kit) followed by measurement of Time-Resolved Fluorescence Resonance Energy Transfer (TR-FRET) signal. On the day of the assay, compounds were solubilized in DMSO and dispensed into a 384-well white Opti-plate (PerkinElmer, catalog #6007290) to generate a 22 point 1:2 titration. Enzyme solution was prepared for each of the tyrosine kinases in 50 mM HEPES, pH 7.4, 5 mM MgCl2 for c-Kit or 10 mM MgCl2 for FLT3, CSFIR, PDGFRa and PDGFRβ, 2 mM MnCl2, 0.01% Brij-35 and 0.01% BSA. Working enzyme concentrations were prepared for c-Kit at 2 nM (2×), PDGFRa and PDGFRß at 10 nM (2×), CSFIR at 2 nM (2×) and FLT3 at 0.4 nM (2×). Five microliters of enzyme dilution of each tyrosine kinase were added to their respective 384-well white Opti-plate pre-dispensed with compound and allowed to incubate for 1 h at rt. Utilizing the same enzyme buffer recipe, 2x substrate mixes were prepared for each enzyme as follows: For c-Kit, 1.6 μM (2×) TK substrate and 16 μM (2×) ATP (Promega, catalog #V915). For PDGFRα, 3.2 μM TK substrate and 1 μM ATP. For PDGFRβ, 3.2 μM TK substrate and 40 μM ATP. For CSFIR, […] TK substrate and 20 μM ATP. For FLT3, 3.2 μM TK substrate and 100 μM ATP. Reactions were initiated by addition of 5 μL of the respective 2x substrate mix to each well of the plates containing the respective tyrosine kinase enzymes and were allowed to proceed for 120 minutes at rt, except for FLT3, the reaction time is 45 min. Following the reaction, 10 μL of detection mix consisting of 0.2 μM (2×) of Streptavidin-XL665 and 2 μM (2×) of TK-Antibody-Cryptate prepared in detection buffer (Part 62SDBRDF of KinEASE assay kit) was added and then allowed to incubate for 60 min. The TR-FRET signal was quantified by measuring the ratio of emission at 665 nm to 620 nm after excitation at 320 nm by reading on a PerkinElmer Envision multimode reader. Compound potencies (IC50 values) were determined using a standard 4-parameter non-linear regression fit.

PDGFRα = PDGFRα (Homo sapiens (Human), UniProt P16234); assay: Inhibition of PDGFRα kinase activity (HTRF KinEASE-TK)
Experimental: as §1, §2

PDGFRβ = PDGFRβ (Homo sapiens (Human), UniProt P09619); assay: Inhibition of PDGFRβ kinase activity (HTRF KinEASE-TK)
Experimental: as §1, §2

CSF1R = CSF1R (Homo sapiens (Human), UniProt P07333); assay: Inhibition of CSF1R kinase activity (HTRF KinEASE-TK)
Experimental: as §1, §2

Sequence of PDGFRα (P16234 24-1089): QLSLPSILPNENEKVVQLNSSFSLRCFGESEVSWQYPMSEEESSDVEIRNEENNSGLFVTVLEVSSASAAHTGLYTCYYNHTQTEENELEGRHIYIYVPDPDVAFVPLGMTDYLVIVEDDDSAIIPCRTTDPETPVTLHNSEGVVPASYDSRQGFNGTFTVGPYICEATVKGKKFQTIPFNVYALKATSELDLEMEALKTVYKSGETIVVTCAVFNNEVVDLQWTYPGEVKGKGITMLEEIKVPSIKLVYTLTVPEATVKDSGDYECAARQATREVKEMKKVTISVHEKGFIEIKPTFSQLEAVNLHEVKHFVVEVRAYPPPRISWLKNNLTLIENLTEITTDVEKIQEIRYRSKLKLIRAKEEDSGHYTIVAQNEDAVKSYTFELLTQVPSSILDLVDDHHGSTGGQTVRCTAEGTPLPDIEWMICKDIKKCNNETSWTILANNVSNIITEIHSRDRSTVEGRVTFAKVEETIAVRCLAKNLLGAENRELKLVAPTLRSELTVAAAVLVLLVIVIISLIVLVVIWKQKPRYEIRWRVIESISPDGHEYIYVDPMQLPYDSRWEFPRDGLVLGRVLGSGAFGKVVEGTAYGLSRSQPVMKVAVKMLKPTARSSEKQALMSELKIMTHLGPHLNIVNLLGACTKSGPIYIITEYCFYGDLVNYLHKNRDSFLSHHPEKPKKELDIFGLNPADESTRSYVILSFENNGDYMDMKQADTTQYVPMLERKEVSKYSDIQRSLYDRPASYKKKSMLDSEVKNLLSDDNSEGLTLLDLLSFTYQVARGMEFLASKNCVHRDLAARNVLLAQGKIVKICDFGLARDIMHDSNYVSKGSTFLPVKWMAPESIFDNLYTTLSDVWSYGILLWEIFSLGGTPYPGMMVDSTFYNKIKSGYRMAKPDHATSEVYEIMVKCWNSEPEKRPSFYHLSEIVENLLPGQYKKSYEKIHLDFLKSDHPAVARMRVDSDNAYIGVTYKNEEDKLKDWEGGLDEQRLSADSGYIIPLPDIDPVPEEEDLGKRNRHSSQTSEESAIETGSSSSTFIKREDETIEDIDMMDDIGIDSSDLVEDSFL
Sequence of c-Kit (P10721 26-976): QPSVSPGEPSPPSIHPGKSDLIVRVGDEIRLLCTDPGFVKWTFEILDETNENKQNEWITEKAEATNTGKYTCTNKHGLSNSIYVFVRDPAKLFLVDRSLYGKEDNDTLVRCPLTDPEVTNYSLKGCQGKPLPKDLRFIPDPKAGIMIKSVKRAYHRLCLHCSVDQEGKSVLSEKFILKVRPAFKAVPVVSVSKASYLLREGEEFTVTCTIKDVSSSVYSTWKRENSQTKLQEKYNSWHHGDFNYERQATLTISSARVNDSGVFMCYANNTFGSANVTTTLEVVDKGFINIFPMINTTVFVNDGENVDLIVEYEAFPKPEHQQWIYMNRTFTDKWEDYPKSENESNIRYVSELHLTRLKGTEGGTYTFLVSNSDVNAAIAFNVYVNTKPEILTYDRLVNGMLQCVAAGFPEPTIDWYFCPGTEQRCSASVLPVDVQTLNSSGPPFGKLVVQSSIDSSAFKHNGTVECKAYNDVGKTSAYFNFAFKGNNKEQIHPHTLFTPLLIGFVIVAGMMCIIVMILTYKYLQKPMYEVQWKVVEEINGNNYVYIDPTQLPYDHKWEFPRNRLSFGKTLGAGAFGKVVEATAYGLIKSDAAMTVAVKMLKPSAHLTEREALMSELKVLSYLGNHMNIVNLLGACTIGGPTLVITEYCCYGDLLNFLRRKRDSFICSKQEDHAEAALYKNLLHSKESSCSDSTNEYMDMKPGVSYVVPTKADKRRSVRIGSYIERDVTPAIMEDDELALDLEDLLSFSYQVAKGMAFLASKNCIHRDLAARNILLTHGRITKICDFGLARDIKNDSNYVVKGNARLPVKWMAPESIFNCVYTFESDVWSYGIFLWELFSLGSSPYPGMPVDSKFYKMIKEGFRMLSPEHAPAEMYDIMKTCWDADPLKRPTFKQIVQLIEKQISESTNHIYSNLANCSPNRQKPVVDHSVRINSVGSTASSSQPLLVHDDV
Sequence of PDGFRβ (P09619 33-1106): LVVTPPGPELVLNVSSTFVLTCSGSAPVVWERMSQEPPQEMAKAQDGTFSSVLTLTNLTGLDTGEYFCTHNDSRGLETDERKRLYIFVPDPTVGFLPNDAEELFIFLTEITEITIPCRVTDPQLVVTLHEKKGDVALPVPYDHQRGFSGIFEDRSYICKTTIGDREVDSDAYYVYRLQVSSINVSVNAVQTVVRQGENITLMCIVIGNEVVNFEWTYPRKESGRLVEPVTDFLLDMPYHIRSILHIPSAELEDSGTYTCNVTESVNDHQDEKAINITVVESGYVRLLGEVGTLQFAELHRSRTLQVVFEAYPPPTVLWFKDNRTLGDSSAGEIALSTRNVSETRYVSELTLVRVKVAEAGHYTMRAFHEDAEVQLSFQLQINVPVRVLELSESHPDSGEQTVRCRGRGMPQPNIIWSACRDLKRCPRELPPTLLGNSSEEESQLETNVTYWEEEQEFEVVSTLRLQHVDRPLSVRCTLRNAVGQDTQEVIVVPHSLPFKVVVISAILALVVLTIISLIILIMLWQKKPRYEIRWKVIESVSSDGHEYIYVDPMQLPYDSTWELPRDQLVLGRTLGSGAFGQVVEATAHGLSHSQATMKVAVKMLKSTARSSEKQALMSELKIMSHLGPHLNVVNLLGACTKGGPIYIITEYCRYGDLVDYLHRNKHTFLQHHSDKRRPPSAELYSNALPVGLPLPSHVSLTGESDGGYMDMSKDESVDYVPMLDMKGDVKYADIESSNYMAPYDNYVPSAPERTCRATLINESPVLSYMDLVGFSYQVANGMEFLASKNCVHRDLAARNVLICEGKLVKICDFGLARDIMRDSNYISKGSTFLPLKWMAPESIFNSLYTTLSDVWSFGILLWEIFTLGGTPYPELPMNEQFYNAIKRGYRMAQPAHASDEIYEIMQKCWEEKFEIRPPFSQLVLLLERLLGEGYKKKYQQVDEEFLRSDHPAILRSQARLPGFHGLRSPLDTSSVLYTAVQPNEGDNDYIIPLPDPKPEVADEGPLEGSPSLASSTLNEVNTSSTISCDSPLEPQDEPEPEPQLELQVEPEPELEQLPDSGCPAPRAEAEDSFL
Sequence of CSF1R (P07333 20-972): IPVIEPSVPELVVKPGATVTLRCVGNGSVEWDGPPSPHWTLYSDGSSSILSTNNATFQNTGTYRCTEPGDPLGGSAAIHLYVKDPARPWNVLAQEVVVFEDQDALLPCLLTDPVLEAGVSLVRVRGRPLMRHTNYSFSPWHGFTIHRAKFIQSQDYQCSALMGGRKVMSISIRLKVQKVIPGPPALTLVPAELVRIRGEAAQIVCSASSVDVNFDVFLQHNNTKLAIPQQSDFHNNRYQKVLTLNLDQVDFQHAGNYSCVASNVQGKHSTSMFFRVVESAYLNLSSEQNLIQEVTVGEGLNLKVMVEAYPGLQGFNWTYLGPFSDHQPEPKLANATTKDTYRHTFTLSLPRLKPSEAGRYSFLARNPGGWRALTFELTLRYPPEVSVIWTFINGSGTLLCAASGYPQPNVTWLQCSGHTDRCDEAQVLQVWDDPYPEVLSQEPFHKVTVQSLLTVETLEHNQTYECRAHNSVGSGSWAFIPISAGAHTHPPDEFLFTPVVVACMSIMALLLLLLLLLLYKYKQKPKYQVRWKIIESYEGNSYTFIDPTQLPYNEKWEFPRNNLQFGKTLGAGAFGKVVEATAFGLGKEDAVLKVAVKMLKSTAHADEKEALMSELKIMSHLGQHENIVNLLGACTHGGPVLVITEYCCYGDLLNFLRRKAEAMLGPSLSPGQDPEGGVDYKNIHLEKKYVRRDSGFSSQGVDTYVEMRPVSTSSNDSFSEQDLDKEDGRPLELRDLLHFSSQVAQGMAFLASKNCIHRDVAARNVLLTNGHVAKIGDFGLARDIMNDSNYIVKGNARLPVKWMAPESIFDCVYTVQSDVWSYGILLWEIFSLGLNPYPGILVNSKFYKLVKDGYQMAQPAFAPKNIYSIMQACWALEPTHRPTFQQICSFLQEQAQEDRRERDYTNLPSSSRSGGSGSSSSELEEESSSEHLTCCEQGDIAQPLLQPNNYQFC

In the case of `Cc1ncc(C(=O)Nc2cc(C(=O)Nc3ccc(C(F)F)cn3)c(F)cc2C)s1` [Example 16, N-[5-[[5-(Difluoromethyl)pyridin-2-yl]carbamoyl]-4-fluoro-2-methylphenyl]-2-methyl-1,3-thiazole-5-carboxamide], the IC50 (c-Kit) is reported as < 100 nM, the IC50 (PDGFRα) is reported as > 1000 nM and the IC50 (PDGFRβ) is reported as > 1000 nM. The IC50 (CSF1R) was > 1000 nM.

For `Cc1ncc(C(=O)Nc2cc(C(=O)Nc3ccc(C(F)(F)F)nc3)c(F)cc2C)s1` [Example 26, N-[4-Fluoro-2-methyl-5-[[6-(trifluoromethyl)pyridin-3-yl]carbamoyl]phenyl]-2-methyl-1,3-thiazole-5-carboxamide], the IC50 (c-Kit) was < 100 nM, the IC50 (PDGFRα) was > 1000 nM and the IC50 (PDGFRβ) was > 1000 nM. For the same compound, the IC50 (CSF1R) was > 1000 nM.

With `Cc1ncc(C(=O)Nc2cc(C(=O)Nc3ccc(C4CC4)nn3)c(F)cc2C)s1` [Example 35, N-[5-[(6-cyclopropylpyridazin-3-yl)carbamoyl]-4-fluoro-2-methylphenyl]-2-methyl-1,3-thiazole-5-carboxamide] the IC50 (c-Kit) was < 100 nM, the IC50 (PDGFRα) was > 1000 nM and the IC50 (PDGFRβ) was > 1000 nM. The IC50 (CSF1R) was > 1000 nM.

For `COCc1ccc(NC(=O)c2cc(NC(=O)c3cnc(C)s3)c(C)cc2F)nc1` [Example 37, N-[4-fluoro-5-[[5-(methoxymethyl)pyridin-2-yl]carbamoyl]-2-methylphenyl]-2-methyl-1,3-thiazole-5-carboxamide], the IC50 (c-Kit) was 100 to 1000 nM, the IC50 (PDGFRα) was > 1000 nM and the IC50 (PDGFRβ) was > 1000 nM. For the same compound, the IC50 (CSF1R) was > 1000 nM.

`Cc1ncc(C(=O)Nc2cc(C(=O)Nc3ccc(OCC(F)(F)F)cn3)c(F)cc2C)s1` [Example 41, N-[4-fluoro-2-methyl-5-[[5-(2,2,2-trifluoroethoxy)pyridin-2-yl]carbamoyl]phenyl]-2-methyl-1,3-thiazole-5-carboxamide] was tested, and the IC50 (c-Kit) was < 100 nM, the IC50 (PDGFRα) was > 1000 nM and the IC50 (PDGFRβ) was > 1000 nM. The IC50 (CSF1R) was > 1000 nM.

`Cc1ncc(C(=O)Nc2cc(C(=O)Nc3cnc(C4CC4)nc3)c(F)cc2C)s1` [Example 42, N-[5-[(2-cyclopropylpyrimidin-5-yl)carbamoyl]-4-fluoro-2-methylphenyl]-2-methyl-1,3-thiazole-5-carboxamide] was tested, and the IC50 (c-Kit) was < 100 nM, the IC50 (PDGFRα) was > 1000 nM and the IC50 (PDGFRβ) was > 1000 nM. For the same compound, the IC50 (CSF1R) was > 1000 nM.

With `Cc1ncc(C(=O)Nc2cc(C(=O)Nc3cnc(C4CC4)cn3)c(F)cc2C)s1` [Example 43, N-[5-[(5-cyclopropylpyrazin-2-yl)carbamoyl]-4-fluoro-2-methylphenyl]-2-methyl-1,3-thiazole-5-carboxamide] the IC50 (c-Kit) was < 100 nM, the IC50 (PDGFRα) was > 1000 nM and the IC50 (PDGFRβ) was > 1000 nM. For the same compound, the IC50 (CSF1R) was > 1000 nM.

With `COCc1ccc(NC(=O)c2cc(NC(=O)c3cnc(C)s3)c(Cl)cc2F)nc1` [Example 47, N-[2-chloro-4-fluoro-5-[[5-(methoxymethyl)pyridin-2-yl]carbamoyl]phenyl]-2-methyl-1,3-thiazole-5-carboxamide] the IC50 (c-Kit) was 100 to 1000 nM, the IC50 (PDGFRα) was > 1000 nM and the IC50 (PDGFRβ) was > 1000 nM. For the same compound, the IC50 (CSF1R) was > 1000 nM.

For `Cc1ncc(C(=O)Nc2cc(C(=O)NCCCN3CCOCC3)c(F)cc2C)s1` [Example 57, N-[4-Fluoro-2-methyl-5-(3-morpholin-4-ylpropylcarbamoyl)phenyl]-2-methyl-1,3-thiazole-5-carboxamide], the IC50 (c-Kit) was 100 to 1000 nM, the IC50 (PDGFRα) was > 1000 nM and the IC50 (PDGFRβ) was > 1000 nM. The IC50 (CSF1R) was > 1000 nM.

For `Cc1cc(F)c(C(=O)Nc2ccc(OC3CC3)cn2)cc1NC(=O)c1cnc(C(F)F)s1` [Example 59, N-[5-[(5-Cyclopropyloxypyridin-2-yl)carbamoyl]-4-fluoro-2-methylphenyl]-2-(difluoromethyl)-1,3-thiazole-5-carboxamide], the IC50 (c-Kit) was < 100 nM, the IC50 (PDGFRα) was > 1000 nM and the IC50 (PDGFRβ) was > 1000 nM. For the same compound, the IC50 (CSF1R) was > 1000 nM.

With `Cc1cc(F)c(C(=O)Nc2ccc(OC3CC3)cn2)cc1NC(=O)c1cnc(C2CC2)s1` [Example 60, 2-Cyclopropyl-N-[5-[(5-cyclopropyloxypyridin-2-yl)carbamoyl]-4-fluoro-2-methylphenyl]-1,3-thiazole-5-carboxamide] the IC50 (c-Kit) was 100 to 1000 nM, the IC50 (PDGFRα) was > 1000 nM and the IC50 (PDGFRβ) was > 1000 nM. For the same compound, the IC50 (CSF1R) was > 1000 nM.

In the case of `Cc1ncc(C(=O)Nc2cc(C(=O)Nc3ccc(OC4CC4)c(C)n3)c(F)cc2C)s1` [Example 62, N-[5-[(5-Cyclopropyloxy-6-methylpyridin-2-yl)carbamoyl]-4-fluoro-2-methylphenyl]-2-methyl-1,3-thiazole-5-carboxamide], the IC50 (c-Kit) is reported as < 100 nM, the IC50 (PDGFRα) is reported as > 1000 nM and the IC50 (PDGFRβ) is reported as > 1000 nM. For the same compound, the IC50 (CSF1R) was > 1000 nM.

For `Cc1ncc(C(=O)Nc2cc(C(=O)Nc3ccc(OCC4CC4)cn3)c(F)cc2C)s1` [Example 65, N-[5-[[5-(cyclopropylmethoxy)pyridin-2-yl]carbamoyl]-4-fluoro-2-methylphenyl]-2-methyl-1,3-thiazole-5-carboxamide], the IC50 (c-Kit) was < 100 nM, the IC50 (PDGFRα) was > 1000 nM and the IC50 (PDGFRβ) was > 1000 nM. The IC50 (CSF1R) was > 1000 nM.

With `Cc1ncc(C(=O)Nc2cc(C(=O)NCC3(F)CCC3)c(F)cc2C)s1` [Example 68, N-[4-Fluoro-5-[(1-fluorocyclobutyl)methylcarbamoyl]-2-methylphenyl]-2-methyl-1,3-thiazole-5-carboxamide] the IC50 (c-Kit) was 100 to 1000 nM, the IC50 (PDGFRα) was > 1000 nM and the IC50 (PDGFRβ) was > 1000 nM. For the same compound, the IC50 (CSF1R) was > 1000 nM.

For `Cc1ncc(C(=O)Nc2cc(C(=O)Nc3ccn(C(F)F)n3)c(F)cc2C)s1` [Example 69, N-[5-[[1-(difluoromethyl)pyrazol-3-yl]carbamoyl]-4-fluoro-2-methylphenyl]-2-methyl-1,3-thiazole-5-carboxamide], the IC50 (c-Kit) was 100 to 1000 nM, the IC50 (PDGFRα) was > 1000 nM and the IC50 (PDGFRβ) was > 1000 nM. The IC50 (CSF1R) was > 1000 nM.

For `Cc1ncc(C(=O)Nc2cc(C(=O)NCc3ccn(C(C)C)n3)c(F)cc2C)s1` [Example 79, N-[4-fluoro-2-methyl-5-[(1-propan-2-ylpyrazol-3-yl)methylcarbamoyl]phenyl]-2-methyl-1,3-thiazole-5-carboxamide], the IC50 (c-Kit) was < 100 nM, the IC50 (PDGFRα) was > 1000 nM and the IC50 (PDGFRβ) was > 1000 nM. The IC50 (CSF1R) was > 1000 nM.

For `Cc1cc(F)c(C(=O)Nc2ccc(OC3CC3)cn2)cc1NC(=O)c1cnc(NC(=O)OC2CCC2)s1` [Example 106], the IC50 (c-Kit) was < 100 nM, the IC50 (PDGFRα) was > 1000 nM and the IC50 (PDGFRβ) was 100 to 1000 nM. The IC50 (CSF1R) was > 1000 nM.

`Cc1cc(F)c(C(=O)Nc2ccc(OC3CC3)cn2)cc1NC(=O)c1cnc(NC(=O)[C@@H]2CCOC2)s1` [Example 107, N-[5-[(5-cyclopropyloxypyridin-2-yl)carbamoyl]-4-fluoro-2-methylphenyl]-2-[[(3R)-oxolane-3-carbonyl]amino]-1,3-thiazole-5-carboxamide] was tested, and the IC50 (c-Kit) was < 100 nM, the IC50 (PDGFRα) was > 1000 nM and the IC50 (PDGFRβ) was 100 to 1000 nM. The IC50 (CSF1R) was > 1000 nM.

With `Cc1cc(F)c(C(=O)Nc2ccc(OC3CC3)cn2)cc1NC(=O)c1cnc(NC(=O)[C@H]2CCOC2)s1` [Example 108, N-[5-[(5-cyclopropyloxypyridin-2-yl)carbamoyl]-4-fluoro-2-methylphenyl]-2-[[(3S)-oxolane-3-carbonyl]amino]-1,3-thiazole-5-carboxamide] the IC50 (c-Kit) was < 100 nM, the IC50 (PDGFRα) was > 1000 nM and the IC50 (PDGFRβ) was > 1000 nM. For the same compound, the IC50 (CSF1R) was > 1000 nM.

In the case of `Cc1cc(F)c(C(=O)Nc2ccc(OC3CC3)cn2)cc1NC(=O)c1cnc(NC(=O)C(C)(C)O)s1` [Example 109, N-[5-[(5-cyclopropyloxypyridin-2-yl)carbamoyl]-4-fluoro-2-methylphenyl]-2-[(2-hydroxy-2-methylpropanoyl)amino]-1,3-thiazole-5-carboxamide], the IC50 (c-Kit) is reported as 100 to 1000 nM, the IC50 (PDGFRα) is reported as > 1000 nM and the IC50 (PDGFRβ) is reported as > 1000 nM. The IC50 (CSF1R) was > 1000 nM.

`Cc1cc(F)c(C(=O)Nc2ccc(C(C)(O)C(F)(F)F)cn2)cc1NC(=O)c1cnc(N)s1` (stereo not drawn) [Example 111, 2-Amino-N-[4-fluoro-2-methyl-5-[[5-(1,1,1-trifluoro-2-hydroxypropan-2-yl)pyridin-2-yl]carbamoyl]phenyl]-1,3-thiazole-5-carboxamide] was tested, and the IC50 (c-Kit) was < 100 nM, the IC50 (PDGFRα) was < 100 nM and the IC50 (PDGFRβ) was < 100 nM. The IC50 (CSF1R) was < 100 nM.
